The values below come from US5663197A, “2-(1-hydroxyethyl)-5-hydroxynaphtho[2,3-b]furan-4,9-dione and antitumor agents comprising this compound” (priority 1992, dated 1997).

Structures are written as SMILES. Values after ≈ are worked out from the molar mass of the structure shown.

Holding throughout (assay type): cell-based
For test [1], the system named is Human vaginal squamous cell carcinoma A-431 cells. Nature of the test: In vitro antitumor test (trypan blue exclusion viable cell count), A-431. As to the method: (§1) An appropriate amount of NFD was dissolved in DMSO to give a 1.0 mg/ml stock solution, which was diluted as necessary before use.
(§2) The following cells in the late logarithmic phase were harvested after treatment with trypsin (containing 0.25% trypsin and 0.02% EDTA; 37° C., 3 min) and used in the test: human lung adenocarcinoma cell lines A-549, VMRC-LCD and SK-LU-1, human lung squamous cell carcinoma Calu-1 cells, human colon adenocarcinoma WiDr cells, human prostate cancer LNCaP cells, human vaginal squamous cell carcinoma A-431 cells, human cervical carcinoma HeLa cells, human cholangiocarcinoma HuCC-T1 cells, mouse skin cancer melanoma B16 (M4) cells, human pancreatic carcinoma ASPC-1 cells, human neuroblastoma IMR-132 cells, human lung small cell carcinoma SCCH-194 cells, human uninary bladder carcinoma T24 cells, human renal cell carcinoma […] cells, human gastric cancer NUGC-2 cells, human thyroid carcinoma 8305C cells, human hepatoma HUH-7 cells, human ovarian carcinoma TYK-nu cells and human chorio carcinoma BeWo cells. […] These cells were plated onto a 96-well microplate at a density of 5-10×10^3 cells/cm^2 using DMEM or RPMI-1640 medium containing 10% fetal bovine serum and cultured for 24 hours in a conventional manner, after which a pre-determined amount of NFD dissolved in DMSO was added to each well. […]

Test [2] relates to Human cervical carcinoma HeLa cells. Nature of the test: In vitro antitumor test (trypan blue exclusion viable cell count), HeLa. As to the method:
as §1, §2

Test [3] deals with Human lung small cell carcinoma SCCH-194 cells. Nature of the test: In vitro antitumor test (trypan blue exclusion viable cell count), SCCH-194. As to the method: as §1, §2
Test [4] concerns Human gastric cancer NUGC-2 cells. As to the kind of experiment: In vitro antitumor test (trypan blue exclusion viable cell count), NUGC-2. Here is the method: as §1, §2
Test [5] has as its system Human colon adenocarcinoma WiDr cells. As to the kind of experiment: In vitro antitumor test (trypan blue exclusion viable cell count), WiDr. Here is the method: as §1
as §2, with “cells. Suspension cultures of human breast cancer MRK-nu-1 cells, human malignant B-cell lymphoma cells and human chronic myelogenous leukemia K562 cells were used to harvest the cells to be used in the test.” for “cells.”, “well. Cultivation was continued, and the number of viable cells was counted after 24, 48 and 72 hours.” for “well.”
(§3) Growth inhibitory action and lethal activity of NFD on various types of malignant tumor cells and normal human cells listed above were evaluated by counting the number of viable cells in each well of the 96-well microplate. […]

For test [6], the system named is Human prostate cancer LNCaP cells. Nature of the test: In vitro antitumor test (trypan blue exclusion viable cell count), LNCaP. Here is the method:
as §1
as §2, with “cells. Suspension cultures of human breast cancer MRK-nu-1 cells, human malignant B-cell lymphoma cells and human chronic myelogenous leukemia K562 cells were used to harvest the cells to be used in the test.” for “cells.”, “well. Cultivation was continued, and the number of viable cells was counted after 24, 48 and 72 hours.” for “well.”
as §3

Setting [7] is: 72 h, three days exposure, read-out: LD50 (IC50), 50% growth-inhibitory dose.

In the case of `CC(O)c1cc2c(o1)C(=O)c1cccc(O)c1C2=O` (centres unmarked) [NFD, 2-(1-hydroxyethyl)-5-hydroxynaphtho[2,3-b]furan-4,9-dione], the half-maximal inhibitory concentration (IC50) in test [1] (setting [7]) came out at 0.021 µg/mL (≈ 0.0813 µM); in test [2] (setting [7]) it was 0.018 µg/mL (≈ 0.0697 µM); in test [3] (72 h, SCCH-194, three days exposure, read-out: LD50 (IC50), 50% growth-inhibitory dose), 0.01 µg/mL (≈ 0.0387 µM); in test [4] (72 h, NUGC-2, three days exposure, read-out: LD50 (IC50), 50% growth-inhibitory dose) it was 0.017 µg/mL (≈ 0.0658 µM); in test [5] (Homo sapiens, 72 h, WiDr, three days exposure, read-out: LD50 (IC50), 50% growth-inhibitory dose) it was 0.011 µg/mL (≈ 0.0426 µM); in test [6] (Homo sapiens, 72 h, LNCaP, three days exposure, read-out: LD50 (IC50), 50% growth-inhibitory dose), 0.0017 µg/mL (≈ 0.00658 µM). The IC (almost complete) is 0.0279 µg/mL in test [1] (FIG. 7, read-out: concentration inhibiting growth almost completely); 0.0224 µg/mL in test [2] (FIG. 8, read-out: concentration inhibiting growth almost completely); 0.03 µg/mL in test [3] (FIG. 15, read-out: concentration inhibiting growth almost completely); 0.033 µg/mL in test [4] (FIG. 18, read-out: concentration inhibiting cells almost completely); 0.0224 to 0.0335 µg/mL in test [5] (Homo sapiens, WiDr, FIG. 5, read-out: concentration inhibiting growth almost completely); 0.0112 µg/mL in test [6] (FIG. 6 (LNCaP; sentence prints human colon adenocarcinoma cells), read-out: concentration inhibiting growth almost completely). The “concentration causing necrosis in almost all tumor cells” value in test [5] (FIG. 5) is 44.7 to 55.9 ng/mL; in test [6] (FIG. 6 (LNCaP; sentence prints human colon adenocarcinoma cells)), 22.4 to 55.9 ng/mL.

What is called IC50 is the concentration that inhibits the measured activity by half.
